Results from article PMC9069370, “Integrated Design of a Membrane‐Lytic Peptide‐Based Intravenous Nanotherapeutic Suppresses Triple‐Negative Breast Cancer” (Advanced Science, 2022).
Peptide text beside a SMILES is read from it.

Legend:
[1] = tested on: HMLER; assay: cells; type: cell-based, human; details: 72 h
Description: (§1) […], and MCF-10A cells were maintained in MEGM with supplements and growth factors bovine pituitary extract, hydrocortisone, human epidermal growth factor, insulin, and gentamicin/amphotericin-B.

[2] = tested on: HMLER‐shEcad; assay: cells; type: cell-based, human; details: 72 h
Description: as §1

[3] = tested on: MCF‐10A; assay: cells; type: cell-based, human; details: 72 h
Description: as §1

[4] = tested on: U2OS; type: cell-based, human; details: 72 h
[5] = tested on: HEK293T; assay: cells; type: cell-based, human; details: 72 h
[6] = Tryptophan fluorescent binding assay; details: tryptophan fluorescence; 50 µM peptide, lipid titrated 0-5000 µM; phosphate buffered saline 1X, pH 7.4; values as lipid per peptide
Experimental: 50 µM ACP peptides and varied concentrations (concentrations: 0, 25, 50, 100, 150, 200, 250, 500, 1250, and 2500 µM) of POPC or POPC:POPG (3:1 ratio) large unilamellar vesicles were prepared in 10 mM phosphate buffer (pH 7.0). The solutions were measured after 1 h of incubation. Excitation was fixed at 280 nm (slit 9 nm) and emission was collected from 300 to 450 nm (slit 9 nm). The spectra were recorded using Cytation 5 Cell Imaging Multi‐Mode Reader from BioTek and were averaged by three scans.
Lipid Concentration-induced
Name Sequence† 50% Peptide Binding (L/P)
Extended Data Table 3 | Tryptophan binding assay. […]
peptide binding onto liposome. 50 µM peptides were fixed and incubated with titrated lipid (POPC vesicle […]
phosphate buffered saline (1X, pH 7.4). The lipid concentration that causes 50 % peptide binding was determined using tryptophan fluorescent binding assay and the values are shown as lipid per peptide.

[7] = ANTS/DPX liposome leakage assay; details: 0.5 mM vesicles, peptide 0-20 µM, 3 h incubation, lipid per peptide; for Peptide Concentration-induced 50 % ANTS/DPX leakage at pH 4.8 (L/P), 3POPC/1POPG Vesicle / Peptide Concentration-induced 50 % ANTS/DPX leakage at pH 4.8 (L/P), POPC Vesicle: HCl-adjusted PBS 1X pH 4.8; for Peptide Concentration-induced 50 % ANTS/DPX leakage at pH 7.4 (L/P), 3POPC/1POPG Vesicle / Peptide Concentration-induced 50 % ANTS/DPX leakage at pH 7.4 (L/P), POPC Vesicle: PBS 1X pH 7.4, high ratio = more potent
Experimental: Vesicle preparation: 5 mM ANTS and 12.5 mM DPX were entrapped in 0.1 µm diameter extruded vesicles (either POPC or POPC/POPG at a ratio of 3:1) with lipids. Gel filtration chromatography of Sephadex G‐100 was used to remove external free ANTS/DPX from LUVs with entrapped contents. LUVs were diluted to 0.5 mM and used to measure the leakage activity by the addition of aliquots of ACPs. Leakage was measured after 3 h incubation. 10% Triton was used as the positive control to measure the maximum leakage of the vesicle. Fluorescence emission spectra were recorded using excitation and emission wavelength of 350 and 510 nm for ANTS/DPX using a BioTek Synergy H1 Hybrid Multi‐Mode Reader.
Peptide Concentration-induced Peptide Concentration-induced
Name Sequence† 50 % ANTS/DPX leakage 50 % ANTS/DPX leakage at pH 7.4 (L/P) at pH 4.8 (L/P)
POPC Vesicle 3POPC/1POPG Vesicle POPC Vesicle 3POPC/1POPG Vesicle […]
Extended Data Table 4 | Peptide concentration-induced 50 % ANTS/DPX liposome leakage. 0.5 mM POPC and 3POPC/1POPG vesicles were fixed and incubated with titrated peptide concentration (0, 0.02, […]
hydrochloric acid-adjusted phoshate buffered saline (1X, pH 4.8). The values are shown as lipid per

| Compound | IC50 [1] | IC50 [2] | IC50 [3] | IC50 [4] | IC50 [5] | Lipid Concentration-induced 50% Peptide Binding (L/P), 3POPC/1POPG Vesicle [6] | Lipid Concentration-induced 50% Peptide Binding (L/P), POPC Vesicle [6] | Peptide Concentration-induced 50 % ANTS/DPX leakage at pH 4.8 (L/P), 3POPC/1POPG Vesicle [7] | Peptide Concentration-induced 50 % ANTS/DPX leakage at pH 4.8 (L/P), POPC Vesicle [7] | Peptide Concentration-induced 50 % ANTS/DPX leakage at pH 7.4 (L/P), 3POPC/1POPG Vesicle [7] | Peptide Concentration-induced 50 % ANTS/DPX leakage at pH 7.4 (L/P), POPC Vesicle [7] |
| --- | --- | --- | --- | --- | --- | --- | --- | --- | --- | --- | --- |
| CC(C)C[C@H](NC(=O)CN)C(=O)N[C@@H](CC(C)C)C(=O)N[C@@H](CCCCN)C(=O)N[C@@H](CC(C)C)C(=O)N[C@@H](CC(C)C)C(=O)N[C@@H](CCCCN)C(=O)N[C@@H](CC(C)C)C(=O)N[C@@H](CC(C)C)C(=O)N[C@@H](CC(C)C)C(=O)N[C@@H](CCC(=O)O)C(=O)N[C@@H](C)C(=O)N[C@@H](C)C(=O)NCC(=O)N[C@@H](Cc1c[nH]c2ccccc12)C(N)=O [KKE] (H-GLLKLLKLLLEAAGW-NH2) | 2.05 ± 0.64 µM | 1.7 µM | 2.9 ± 0.57 µM | 12.8 ± 1.2 µM | 4.4 ± 0.14 µM | 0.44 L/P | 0.48 L/P | 131 L/P | 143 L/P | 346 L/P | 1133 L/P |
| CC(C)C[C@H](NC(=O)CN)C(=O)N[C@@H](CC(C)C)C(=O)N[C@@H](Cc1c[nH]cn1)C(=O)N[C@@H](CC(C)C)C(=O)N[C@@H](CC(C)C)C(=O)N[C@@H](CCC(=O)O)C(=O)N[C@@H](CC(C)C)C(=O)N[C@@H](CC(C)C)C(=O)N[C@@H](CC(C)C)C(=O)N[C@@H](CCCCN)C(=O)N[C@@H](C)C(=O)N[C@@H](C)C(=O)NCC(=O)N[C@@H](Cc1c[nH]c2ccccc12)C(N)=O [HEK] (H-GLLHLLELLLKAAGW-NH2) | 2.35 ± 1.06 µM | 3.45 ± 2.19 µM | 29.8 ± 7.35 µM | 143 ± 80.3 µM | 6.95 ± 1.63 µM | 0.46 L/P | 0.44 L/P | 411 L/P | 97 L/P | 386 L/P | 755 L/P |
| CC(C)C[C@H](NC(=O)CN)C(=O)N[C@@H](CC(C)C)C(=O)N[C@@H](Cc1c[nH]cn1)C(=O)N[C@@H](CC(C)C)C(=O)N[C@@H](CC(C)C)C(=O)N[C@@H](Cc1c[nH]cn1)C(=O)N[C@@H](CC(C)C)C(=O)N[C@@H](CC(C)C)C(=O)N[C@@H](CC(C)C)C(=O)N[C@@H](CCCCN)C(=O)N[C@@H](C)C(=O)N[C@@H](C)C(=O)NCC(=O)N[C@@H](Cc1c[nH]c2ccccc12)C(N)=O [HHK] (H-GLLHLLHLLLKAAGW-NH2) | 3.15 ± 0.07 µM | 1.75 ± 0.21 µM | 5.6 ± 0.14 µM | 12.7 ± 1.91 µM | 5.25 ± 1.48 µM | 0.20 L/P | 0.68 L/P | 111 L/P | 149 L/P | 160 L/P | 1133 L/P |
